For one series, the system named is CAL-120 cell line. In words: SRB proliferation assay. The format is cell-based, human. The following applies: read-out: IC50 proliferation; CAL-120, SRB, 72 hours.
The next series deals with MDA-MB-231 cell line. Nature of the series: SRB proliferation assay. The following applies: read-out: IC50 proliferation; MDA-MB-231, SRB, 72 hours. The format is cell-based, human. A general note: The SRB assay estimates cell density from bound dye.
In the next series the test system is HCC1395 cell line. Nature of the series: SRB proliferation assay. The format is cell-based, human. The following applies: read-out: IC50 proliferation, 72 hours.
Another series deals with Hs578T cell line. In words: SRB proliferation assay. The format is cell-based, human. As to conditions: read-out: IC50 proliferation, 72 hours.
For another series, the system named is CAL-120 cells. In words: Cell cycle analysis. The format is cell-based, human. The following applies: CAL-120, 24 hours, 0-200 nM.
In series [1] the test system is sensitive and resistant TNBC cell lines. In words: Immunoblotting of protein acetylation and p21. The format is cell-based, human. The following applies: 24 hours, immunoblot. (A western blot detects proteins with antibodies after separation by electrophoresis.)
In a further series the test system is HCT-116 xenografts. In words: HCT-116 xenograft efficacy study. The format is in vivo. The following applies: for TGI compared to vehicle control: HCT-116 xenograft.
Series [2] relates to acetyl-histone H3 and acetyl H3K9. Nature of the series: HCT-116 xenograft pharmacodynamics. The format is in vivo, BALB/c nude mice.
Series [3] in a line: Plasma and tumor pharmacokinetics of OKI-005 in HCT-116 tumor-bearing mice. The format is in vivo, BALB/c nude mice.
Series [4] relates to luciferase-labeled MDA-MB-231 cells. Nature of the series: MDA-MB-231 luciferase-labeled metastasis model. The following applies: OKI-005 10 mg/kg IP 3 times a week for 30 days. The format is in vivo, BALB/c nude mice.
Series [5] is described as follows: Plasma persistence of OKI-006 across preclinical models. The format is in vivo. The following applies: depending on the dose and model (mouse vs. rat vs. dog).
For another series, the system named is HDAC-1. As to conditions: read-out: IC50 HDAC-1; cell-free biochemical assay, previously published; cited from earlier work.
For the next series, the system named is HDAC-2. As to conditions: read-out: IC50 HDAC-2; cell-free biochemical assay, previously published; cited from earlier work.
In a further series the test system is HDAC-3. The following applies: read-out: IC50 HDAC-3; cell-free biochemical assay, previously published; cited from earlier work.
The test system of another series is HDAC-8. As to conditions: read-out: IC50 HDAC-8; cell-free biochemical assay, previously published; cited from earlier work.
Another series concerns HDAC-6. The following applies: read-out: IC50 HDAC-6; cell-free biochemical assay, previously published; cited from earlier work.
The subject of another series is HDAC-4. As to conditions: read-out: IC50 HDAC-4; cell-free biochemical assay, previously published; cited from earlier work.
In another series the test system is HDAC-5. The following applies: read-out: IC50 HDAC-5; cell-free biochemical assay, previously published; cited from earlier work.
The subject of a further series is HDAC-7. The following applies: read-out: IC50 HDAC-7; cell-free biochemical assay, previously published; cited from earlier work.
For the next series, the system named is HDAC-9. As to conditions: read-out: IC50 HDAC-9; cell-free biochemical assay, previously published; cited from earlier work.
Series [6] relates to MDA-MB-231 xenograft. Nature of the series: MDA-MB-231 xenograft efficacy study. The following applies: OKI-179 40-80 mg/kg PO daily, 120 mg PO every other day. The format is in vivo, BALB/c nude mice.
The next series has as its system acetylated histone H3. Nature of the series: MDA-MB-231 xenograft pharmacodynamics. The format is in vivo, nude mice. As to conditions: OKI-179 40, 60 or 80 mg/kg PO daily x 3 or 10 days.
A further series concerns advanced solid tumors. As to conditions: continuous dosing, patients with advanced solid tumors; cited from earlier work.
For series [7], the system named is MDA-MB-231 xenograft. As to conditions: addition of OKI-179 to nivolumab; cited from earlier work.
The subject of the next series is MCF-7 xenograft. In words: MCF-7 xenograft, OKI-179 in combination with tamoxifen. As to conditions: OKI-179 60 mg/kg PO 5 days on 2 days off, tamoxifen 25 mg/kg SQ 3 times a week.

The structures appear in SMILES notation. “Also recorded” adds a separate entry of the source.

For the compound `CCCCCCCC(=O)SCC/C=C/[C@@H]1CC(=O)NCc2nc(cs2)C(=O)NC(C)(C)C(=O)N[C@@H](C(C)C)C(=O)O1` [OKI-005], the IC50 in the series with CAL-120 cell line was < 100 nM; in the series on MDA-MB-231 cell line it was < 100 nM; in the series on HCC1395 cell line, > 500 nM; in the series with Hs578T cell line it was > 500 nM. Also, the “cell cycle effect (G1 and S phase fraction)” value with CAL-120 cells is “trend towards an increase in G1 and a decrease in the cell fraction in S phase”. Further, the “acetylated histone-H3 and p21” value in series [1] (0-500 nM) is given as “concentration-dependent increase”. Further, in series [1] (highest dose levels), the “acetylated α-tubulin” value is on record as “small increase”. The “TGI compared to vehicle control” value turned out to be 28.1% in the series with HCT-116 xenografts (OKI-005 30 mg/kg, P = 0.025) and 75.6% in the series on HCT-116 xenografts (OKI-005 100 mg/kg, P < 0.001). The “body weight / tolerability” value in the series on HCT-116 xenografts (OKI-005 100 mg/kg PO daily, mice, 100 mg/kg) is given as “weight loss related to treatment requiring dose reduction; also recorded: dose-limiting treatment-related toxicity”. Moreover, the “acetyl-histone H3 and acetyl H3K9 in tumor” value in [2] (1 hour post-dose, HCT-116 xenograft) is “dose-dependent increase”. The “time of highest acetyl-Histone H3 and acetyl H3K9 levels post-treatment” value in series [2] (OKI-005 100 mg/kg) was 4 h. Moreover, the “time of return of acetyl-Histone H3 and acetyl H3K9 to baseline post-dose” value in series [2] (OKI-005 100 mg/kg) is 24 h. Also, the half-life in plasma in series [3] (PO dosing of OKI-005, metabolite OKI-006 measured, HCT-116 tumor-bearing mice) was < 2 h. In addition, the “primary tumor growth and metastasis (number of thoracic metastasis)” value in series [4] was “statistically significant inhibition”.

With `CC(C)[C@@H]1NC(=O)C(C)(C)NC(=O)c2csc(n2)CNC(=O)C[C@@H](/C=C/CCS)OC1=O` [OKI-006], the “tumor concentrations versus plasma levels” value in [3] (OKI-006 after single dose of OKI-005 PO or IP) is “exceeded plasma levels at all time points”. In [5], the “persistence of plasma concentrations > 100 nM following a single dose” value lay within 4 to 12 h. Besides, the IC50 in the series with HDAC-1 was 1.2 nM; in the series with HDAC-2 it was 2.4 nM; with HDAC-3, 2 nM; in the series with HDAC-8, 47 nM; in the series on HDAC-6 it was 47 nM; in the series on HDAC-4, > 1000 nM. For the same compound, the IC50 with HDAC-5, with HDAC-7 and with HDAC-9 was > 1000 nM throughout.

As to `CC(C)[C@H](N)C(=O)SCC/C=C/[C@@H]1CC(=O)NCc2nc(cs2)C(=O)NC(C)(C)C(=O)N[C@@H](C(C)C)C(=O)O1` [OKI-179], the “body weight / tolerability” value with HCT-116 xenografts (OKI-179 100 mg/kg oral daily, animals) is “weight loss”. Moreover, the “tumor growth at day 24” value with HCT-116 xenografts (OKI-179 40-80 mg/kg PO daily and 120 mg PO every other day, all doses and schedules) is reported as “statistically significant decreased tumor growth”. In addition, the tumor growth inhibition result with MDA-MB-231 xenograft [6] is given as “statistically significant tumor growth inhibition at higher doses”; in the series with MCF-7 xenograft, “active”. Further, the “acetylated histone H3 in tumor” value in the series with acetylated histone H3 was “increase in acetylated histone H3”. Further, the dose-limiting toxicity entry in the series on advanced solid tumors is reported as “dose-limiting thrombocytopenia”. Further, in the series on MDA-MB-231 xenograft [7], the “tumor growth inhibition and T-cell activation” value is “improved tumor growth inhibition and increased T-cell activation”.

`CC/C(=C(\c1ccccc1)c1ccc(OCCN(C)C)cc1)c1ccccc1` [tamoxifen, reference compound]: in the series on MCF-7 xenograft, the tumor growth inhibition entry is given as “active”.
